pIC50: −log10 of the molar value. Where only a bound is given, the exact number is not on record here.

Holding throughout (type): cell-based
The nature of series [1]: Viable cell count by FSC/SSC gate, CEM-GXR. Conditions: human, CEM-GXR cells infected with a Clade B HIV-1 strain. The method, then: To assess the activity of compounds against HIV-1 strains having resistance to various ART drugs, assays were performed in the context of CEM-GXR cells. These cells express CD4, CXCR4, and coreceptor, CCR5 as well as an exogenous Tat-driven LTR-GFP expression cassette. Cultures were infected with different HIV-1 strains of interest, differing on their subtypes (A and B), and resistance to three major drug targets (reverse transcriptase, protease, and integrase). The culture contains serial dilutions of the molecule in the final concentrations from 0.156 to 5 μM for 833; 725 nM to 46.87 μM for 791; 1.95 to 62.5 μM for 892. Antiviral activity was evaluated in the assay by measuring inhibition of HIV-1 spread in a coculture of CEM-GXR cells containing 1% of HIV-1 infected (GFP positive) cells using flow cytometric analysis (GuavaSoft 2.2 software, Guava HT8, Millipore). To estimate the viable cell counts, the gate in a flow cytometer (Guava HT8) was set to cover 95% of the freshly passaged uninfected CEM-GXR cell or using ViaCount™. The same parameter was employed to gate viable cells in the inhibition assay and the number of gated cells was obtained by GuavaSoft 2.2 software. For assays using ViaCount™, sample acquisition and data analysis were performed with the selection of EasyFit analysis feature using the ViaCount™ software module.

A further series concerns HIV-1 US RNA. Put plainly: FISH of HIV-1 US RNA and GagGFP in HeLa rtTA HIV GagGFP C7 cells. Conditions: 791 30 µM, 833 2 µM, 892 15 µM. The method, then: Changes in HIV-1 US RNA subcellular distribution in response to compound treatment was analyzed by fluorescent in situ hybridization in HeLa HIVrtTA GagGFP cells, as described by Wong et al.. Following washing to remove unbound probe, nuclei were stained with DAPI and images were acquired using a Leica DMR microscope at 630× magnification.

Another series concerns p53. Nature of the series: Western blot of p53. Conditions: 791 30 µM, 833 2 µM, 892 15 µM. The method, then: (§1) ELISA for p24 Gag antigen was performed on cell supernatants using kits purchased from Frederick National Laboratory for Cancer Research (Leidos) or XpressBio extended range kit and performed according to manufacturer’s instructions. Protein concentration in cell lysates was quantified by Bradford assay and equal amounts of protein run on 7, 10, 12, or 14% SDS-PAGE, depending on the protein of interest. Following transfer to PVDF (BioRad or Perkin-Elmer), blots were blocked in either 5% Milk-PBS-T (5% Milk, 0.05% Tween-20, 1× PBS) or 3% BSA-PBS-T (3% BSA, 0.05% Tween-20, 1× PBS) prior to incubating with primary antibody (all diluted in 3% BSA-PBS-T). Primary antibodies used were: purified mouse anti-p24 supernatant from anti-HIV-1 Gag hybridoma 183, mouse anti-gp120 hybridoma 902 (NIH AIDS Reagent Program), mouse monoclonal antibody to HIV-1 Rev (Abcam), rabbit polyclonal antibody to HIV-1 Tat (Abcam), mouse monoclonal antibody to p53 (Santa Cruz), rabbit purified IgG for Nap1 (provided by L. Frappier), rabbit polyclonal antibody to GAPDH (Sigma-Aldrich), or mouse monoclonal antibody to α-Tubulin (Sigma-Aldrich). Following incubation with appropriate secondary antibody, blots were visualized by ECL, ECL Plus (Perkin-Elmer), or Clarity Western ECL substrate (BioRad). Quantification of the relative intensity of the detected bands was done using ImageLab software and normalized to corresponding bands of the loading control (GAPDH or α-Tubulin).

In another series the test system is Nap1. Nature of the series: Western blot of Nap1. Conditions: 791 30 µM, 833 2 µM, 892 15 µM, 24 h. The method, then: as §1
For orientation: In western blotting, separated proteins are transferred to a membrane and probed.

A further series concerns HIV-1 BaL. Nature of the series: HIV-1 BaL replication in PBMCs, p24 antigen ELISA. Particulars: for pIC50: Human immunodeficiency virus 1, BAL, PBMC. The method, then: To examine the effect of compounds on viral replication, studies were carried out in peripheral blood mononuclear cells (PBMCs). PBMCs were isolated from healthy (HIV-uninfected) volunteer blood donors as described by Dobson-Belaire et al.. Informed consent was obtained from participants in accordance with the guidelines for conduct of clinical research at the University of Toronto and St. Michael’s Hospital, Toronto, Ontario, Canada. Stored PBMCs were thawed, washed with RPMI 1640 complete medium and cultured in RPMI 1640 complete medium containing 2 μg/mL of PHA-L (Sigma-Aldrich) and 20 U/mL of IL-2 (BD Pharmingen) for 72 h. Subsequently, cells were counted and a portion of the cells was separated to another tube for uninfected control treatments. The remaining PBMCs were resuspended in media containing HIV-1 BaL at a multiplicity of infection (MOI) of approximately 0.01 and infected by spinoculation, following which cells were washed twice with room temperature RPMI 1640 complete medium and resuspended to a concentration of 5 × 10^5 cells/mL in complete RPMI 1640 containing 20 U/mL of IL-2. Compounds were added to infected PBMCs or uninfected control PBMCs. Azidothymidine (AZT, Sigma-Aldrich) was used as control treatment at a final concentration of 3.74 μM. On day 4 post infection, culture medium was replenished with the compounds and IL-2 in fresh complete RPMI 1640. On days 2, 4, 6 and 8 post infection, culture supernatant was harvested, virus lysed by adjusting to 1% TritonX-100 and stored at −20 °C for p24 antigen ELISA. A fraction of the culture was harvested to assess percent cell viability by trypan blue exclusion using Glasstic slides (Kova). Relative percent cell viability in compound treated samples versus DMSO-control treated samples was calculated as follows: (total viable cells/total cells)compound/(total viable cells/total cells)DMSO.
ELISA for p24 Gag antigen was performed on cell supernatants using kits purchased from Frederick National Laboratory for Cancer Research (Leidos) or XpressBio extended range kit and performed according to manufacturer’s instructions. Protein concentration in cell lysates was quantified by Bradford assay and equal amounts of protein run on 7, 10, 12, or 14% SDS-PAGE, depending on the protein of interest. Following transfer to PVDF (BioRad or Perkin-Elmer), blots were blocked in either 5% Milk-PBS-T (5% Milk, 0.05% Tween-20, 1× PBS) or 3% BSA-PBS-T (3% BSA, 0.05% Tween-20, 1× PBS) prior to incubating with primary antibody (all diluted in 3% BSA-PBS-T). […] Quantification of the relative intensity of the detected bands was done using ImageLab software and normalized to corresponding bands of the loading control (GAPDH or α-Tubulin).

Series [2] is described as follows: XTT cell metabolism/viability assay, HeLa. Conditions: human, HeLa rtTA HIV∆Mls cells. How it is done: Effects of compound treatment on cellular metabolism was assessed by an XTT-based in vitro toxicology assay kit (Sigma-Aldrich) or Trypan blue exclusion (Life Technologies) as proxy for degree of cytotoxicity and expressed relative to DMSO control treatment. For measurement of cell viability using XTT, culture media was removed after 24, 72, and 96 h of compound treatment, replaced with 20% XTT solution and incubated at 37 °C in a 5% CO2 humidified incubator for 2–6 h, and relative cell viability was measured in compound treated cells relative to DMSO-treated cells. Cell viability measurements in CEM-GXR cells are described above.
(Formazan colour is commonly taken as a measure of viable cells.)

For `O=C(NC(=S)NNC(=O)c1ccccc1O)c1ccc(-c2ccccc2)cc1` [Compound 833, N-([2-(2-hydroxybenzoyl)hydrazino]carbonothioyl}-4-biphenylcarboxamide], the CC50 (in general, the concentration giving 50% cytotoxicity) in series [1] is over 5 µM. Besides, in the series on HIV-1 US RNA, the “GagGFP levels relative to DMSO” value is “reduced” and the “cytoplasmic accumulation of HIV-1 US RNA” value was “prevented cytoplasmic accumulation”. Further, the p53 expression result in the series with p53 is listed as “no effect”. The “reduction of Nap1 expression” value in the series with Nap1 is on record as “more variable”. The pIC50 (in general, the negative decadic logarithm of the IC50, by convention in mol/L) with HIV-1 BaL was 5.80. The compound also yielded a CC50 in series [2] of at least 40 µM.
Turning to `Cc1cc(NCc2cccnc2)n2ncc(-c3ccc(Cl)cc3)c2n1` [Compound 791, 3-(4-chlorophenyl)-5-methyl-N-(3-pyridinylmethyl)pyrazolo[1,5-a]pyrimidin-7-amine], the CC50 in series [1] was over 12 µM. In the series with HIV-1 US RNA, the “GagGFP levels relative to DMSO” value is reported as “reduced” and the “cytoplasmic accumulation of HIV-1 US RNA” value is given as “prevented cytoplasmic accumulation”. Besides, the p53 expression result in the series on p53 was “approximately twofold”. The “reduction of Nap1 expression” value in the series with Nap1 is listed as “approximately 50%”. In addition, in the series with HIV-1 BaL, the pIC50 was 5.82. The “doses inhibiting HIV-1 virus production that did not affect cell viability” value with HIV-1 BaL (PBMCs, 2–4 donors) was under 5 µM. In series [2], this compound showed a CC50 of over 40 µM.
For `COc1ccc(C=NNC(=O)c2ccccc2O)cc1O` [Compound 892, 2-hydroxy-N′-(3-hydroxy-4-methoxybenzylidene)benzohydrazide], the CC50 is 31 µM in series [1] and over 40 µM in series [2]. For the same compound, in the series on HIV-1 US RNA, the “GagGFP levels relative to DMSO” value was “reduced”. The “cytoplasmic accumulation of HIV-1 US RNA” value with HIV-1 US RNA was “prevented cytoplasmic accumulation”. Moreover, the p53 expression result in the series on p53 was “no effect”. Moreover, in the series with Nap1, the “reduction of Nap1 expression” value is “no effect”. Besides, the pIC50 in the series with HIV-1 BaL was 5.70.

(Values after publication PMC5267425, “Identification of small molecule modulators of HIV-1 Tat and Rev protein accumulation” (Retrovirology, 2017).)
